This is an account of results in US5936065A, “CS-1 peptidomimetics, compositions and methods of using the same” (Cytel Corporation, priority 1995, dated 1999).

A short description of data set [1]: Retention of potency in PBS containing 10 percent mouse or human serum. Type of data set: in vitro ADME. Conditions: PBS at 7.2-7.4 containing 10 percent mouse or human serum; 24 hours.
Data set [2] relates to BALB/c mice. Nature of the data set: Adoptive transfer delayed type hypersensitivity (oxazolone) in mice. Conditions: for reduction of inflammation (swelling diameter at challenge site), initial study: 6 mg/kg/day subcutaneously by implanted pump for 24 hours, ear swelling 24 hours after challenge, FIG. 5. The class given is in vivo, mouse. The procedure:
An adoptive transfer delayed-type hypersensitivity murine model has been developed using splenic T cells primed to oxazolone. This model is described in Elices et al., Clin. Exp. Rheum., 11(Suppl. 8):577-580 (1993), whose procedures were followed here.
Thus, BALB/c mice were shaved on the belly and painted (50 μl on the belly and 5 μl on each paw) with three percent oxazolone in acetone/olive oil (4:1) at days zero and 1. At day 5, the mice were sacrificed, their spleens removed, and splenic T cells were obtained via nylon wool columns.
Normal saline or saline containing 25×10^6 /animal of the oxazolone-immune T cells were separately injected into naive mice. The mice were then challenged by painting 10 μl of 2 percent oxazolone onto one ear each. All procedures were carried out under sterile conditions and in endotoxin-free buffers.
Prior to challenge or saline injection, the mice were implanted with pumps that subcutaneously administered normal saline, normal saline containing the compound, Compound ID No. 896.52, N-phenylacetyl-Leu-Asp-Phe-D-Pro-NH2, or normal saline containing a compound with a scrambled sequence continually at 6 mg/kg/day for a 24-hour time period. The swelling diameter at the site of challenge or saline injection was measured with a microcaliper 24 hours thereafter.
An expanded study was carried out as described above except that a scrambled compound control was not used as a control for further inhibitor compounds of Table 1 with larger groups of mice. Statistical analyses were carried out versus injection of vehicle alone.

For data set [3], the system named is SJL/J mice. As to the kind of experiment: Experimental autoimmune encephalomyelitis in mice. Type of data set: in vivo. Conditions: 1 mg/mouse intraperitoneally at days 8 and 9; FIG. 6. The procedure: EAE was induced in female SJL/J mice (8 to 14 weeks old) by immunization on day zero with 50 μg of a compound corresponding to positions 139-151 of PLP emulsified in a 1:1 mixture of PBS and complete Freund's adjuvant (CFA). Each mouse was injected with 0.2 ml of the adjuvant emulsion subcutaneously (s.c.) at two sites in the hind flank. All mice received 10^7 killed Bordetella pertussis units in 100 μl were injected intravenously 24 to 72 hours later.
Mice were observed daily, beginning at day 8 for clinical signs of EAE, and disease was scored on a scale of 0-5 as: 0=no disease; 1=floppy tail; 2=moderate hind limb weakness; 3=paraparesis; 4=paraplegis with moderate forelimb weakness; 5=qualdriplegis or premoribund state.
The inhibitor compound, Compound ID No. 896.52, N-phenylacetyl-Leu-Asp-Phe-D-Pro-NH2 was administered intraperitoneally at 1 mg/mouse in 0.2 ml of incomplete Freund's adjuvant at days 8 and 9. A compound having a scrambled sequence [N-phenylacetyl-Asp-Leu-Phe-D-Pro-NH2 ] was similarly administered to serve as a control.
Summed or averaged scores for clinical signs were plotted vs. time. The area under the resulting curves was calculated between day 8 and day 35 to calculate percentage inhibition of EAE by an inhibitor compound. The percent inhibition was calculated as follows:
[…]

Data set [4] relates to asthmatic sheep. Nature of the data set: Treatment of asthmatic sheep (Ascaris suum antigen, double blind cross-over). Type of data set: in vivo. Conditions: for PC400, carbachol dosage required to increase SRL 4-fold: 24 hours after challenge, pre-challenge values about 20-23 BU; for specific lung resistance (SRL) after challenge: nebulized 1 mg/kg twice a day for three days, 0.5 hours prior to and four hours post challenge on day 4, FIG. 7. As to the method: Six asthmatic sheep were treated in a double blind cross-over study. […] This study was carried out generally as described in Abraham et al., J. Clin. Invest., 93:776-787 (1994).
The inhibitor compound used here was Compound ID No. 896.52, N-phenylacetyl-Leu-Asp-Phe-D-Pro-NH2, with a control compound that comprised the previously described compound having the same residues in a scrambled sequence. The vehicle for the nebulized compounds was phosphate-buffered saline. The compounds were administered at a dose of 1 mg/kg each, twice a day for three days prior to challenge, as well as 0.5 hours prior to and four hours post challenge on day 4. Because this was a crossover study, each animal received one or the other treatment, followed by a rest and then the other treatment. Each animal therefore served as its own control.
Post challenge airway responsiveness was also assayed. Here, specific lung resistance, SRL, returned to baseline values 24 hours after challenge, however, the sheep were hyperresponsive to inhaled carbachol at that time.

Square brackets hold non-standard residues; d marks the D form. Peptide text beside a SMILES is read from it. * marks the point of attachment. PhAc = O=C(Cc1ccccc1)*

In the case of `CC(C)C[C@H](NC(=O)Cc1ccccc1)C(=O)N[C@@H](CC(=O)O)C(=O)N[C@@H](Cc1ccccc1)C(=O)N1CCC[C@@H]1C(N)=O` [896.52, N-phenylacetyl-Leu-Asp-Phe-D-Pro-NH2] (PhAc-LDF[dP]-NH2), in data set [1], the “loss of potency in serum-containing buffer” value was “no loss of potency”. The “reduction of inflammation (swelling diameter at challenge site), initial study” value in data set [2] is “reduced this type of CS-1/VLA-4-mediated immunoinflammation”. Further, the “Percent Inhibition of post-challenge swelling, expanded study” value in data set [2] (versus vehicle alone, implanted pump, 24 hours) turned out to be 36%. Moreover, in data set [3], the “clinical signs of EAE” value is on record as “marked improvement in clinical signs”. Also, in data set [4], the “PC400, carbachol dosage required to increase SRL 4-fold” value is “about 27 BU” and the “specific lung resistance (SRL) after challenge” value is “less of a change from baseline specific lung resistance”.
Turning to `CC(C)C[C@H](NC(=O)[C@H](CC(=O)O)NC(=O)Cc1ccccc1)C(=O)N[C@@H](Cc1ccccc1)C(=O)N1CCC[C@@H]1C(N)=O` [N-phenylacetyl-Asp-Leu-Phe-D-Pro-NH2, reference compound] (PhAc-DLF[dP]-NH2), the “reduction of inflammation (swelling diameter at challenge site), initial study” value in data set [2] is given as “no reduction of inflammation”. For the same molecule, in data set [4], the “PC400, carbachol dosage required to increase SRL 4-fold” value is “about 12 BU” and the “specific lung resistance (SRL) after challenge” value was “had an increase in that pulmonary function”.
